# Patent US8309586B2, “Glucokinase activators and pharmaceutical compositions containing the same as an active ingredient” (LG Life Sciences Ltd., priority 2007, dated 2012)
# Tested on: Glucokinase known as hexokinase IV (human GK isoform 1, pancreas form and human GK isoform 2, liver form)
# Assay: Glucokinase enzymatic activity assay (G6PDH-coupled, NADH absorbance at 340 nm)
# Format: biochemical
# Details: 5 mM glucose, 1 mM ATP, 37 nM GK, 10 min at room temperature
# Method: Glucokinase known as hexokinase IV (human GK isoform 1, pancreas form and human GK isoform 2, liver form) was cloned into an expression vector pET15 fx (Novagen Co.), transformed to E. coli BL21 (DE3) (Invitrogen Co.) strain, expressed, and purified using a nickel column. Then, the glucokinase obtained from dialysis was used in the following assay.
# Glucokinase assay was performed by measuring absorbance according to the conventional manner. Briefly speaking, glucokinase converts the substrate glucose to glucose-6-phosphate under certain conditions, and glucose-6-phosphate dehydrogenase irreversibly converts glucose-6-phosphate to gluconate-6-phosphate. During this procedure, NADH is formed, and its absorbance is measured to calculate the enzymatic activity.
# In the measurement of the enzymatic activity, each compound was diluted by two-fold from the maximum to the minimum concentrations, and 2 μl of each solution was added to 96 well UV plate (BD bioscience). 60 μl of the first mixture (final concentrations 25 mM Hepes, 25 mM KCl, 2 mM MgCl2, 1 mM DTT) was added, and thoroughly mixed. 38 μl of the enzyme mixture (final concentrations 1 mM ATP, 1 mM NAD, 5 mM glucose, 0.85U G6PDH, 37 nM GK) was added (final volume 100 μl), and the mixture was reacted for 10 min at room temperature. The absorbance of NADH was measured at 340 nm using a UV spectrometer (Molecular Device).
# The enzyme activating abilities of the compounds according to the present invention are represented as AC1.5 (the compound concentration at which the enzymatic activity is increased by 1.5 times, nM), which is in the range of 0.001 uM to 30 uM or less, preferably 0.001 uM to 10 uM, more preferably 0.001 uM to 1 uM.
row,Structure (SMILES),AC1.5 (the compound concentration at which the enzymatic activity is increased by 1.5 times)
1,"COC(=O)C[C@@H]1CSC(c2cc3cc(Oc4cccnc4)cc(NC4CCOCC4)c3[nH]2)=N1 [Example 58, {(R)-2-[5-(pyridin-3-yloxy)-7-(tetrahydro-pyran-4-ylamino)-1H-indol-2-yl]-4,5-dihydro-thiazol-4-yl}-acetic acid methyl ester]",14 nM
2,"O=C(O)C[C@@H]1CSC(c2cc3cc(Oc4ccccc4)cc(NC4CCOCC4)c3[nH]2)=N1 [Example 55, {(R)-2-[5-phenoxy-7-(tetrahydro-pyran-4-ylamino)-1H-indol-2-yl]-4,5-dihydro-thiazol-4-yl}-acetic acid]",29 nM
3,"O=C(C[C@@H]1CSC(c2cc3cc(Cl)cc(NC4CCCC4)c3[nH]2)=N1)NCCN1CCOCC1 [Example 74, 2-[(R)-2-(5-chloro-7-cyclopentylamino-1H-indol-2-yl)-4,5-dihydro-thiazol-4-yl]-N-(2-morpholin-4-yl-ethyl)-acetamide]",14 nM
4,"CNC(=O)C[C@@H]1CSC(c2cc3cc(Cl)cc(NC4CCCC4)c3[nH]2)=N1 [Example 76, 2-[(R)-2-(5-chloro-7-cyclopentylamino-1H-indol-2-yl)-4,5-dihydro-thiazol-4-yl]-N-methyl-acetamide]",14 nM
5,"CNC(=O)C[C@@H]1CSC(c2cc3cc(Cl)cc(NC4CCOCC4)c3[nH]2)=N1 [Example 82, 2-{(R)-2-[5-chloro-7-(tetrahydro-pyran-4-ylamino)-1H-indol-2-yl]-4,5-dihydro-thiazol-4-yl}-N-methyl-acetamide]",22 nM
6,"CCNC(=O)C[C@@H]1CSC(c2cc3cccc(NC4CCCC4)c3[nH]2)=N1 [Example 89, 2-[(R)-2-(7-cyclopentylamino-1H-indol-2-yl)-4,5-dihydro-thiazol-4-yl]-N-ethyl-acetamide]",32 nM
7,"COC(=O)C[C@@H]1CSC(c2cc3cc(Cl)cc(NC4CCOCC4)c3[nH]2)=N1 [Example 30, {(R)-2-[5-chloro-7-(tetrahydro-pyran-4-ylamino)-1H-indol-2-yl]-4,5-dihydro-thiazol-4-yl}acetic acid methyl ester]",28 nM
8,"O=C1CCCN1CC[C@@H]1CSC(c2cc3cc(Cl)cc(NC4CCCC4)c3[nH]2)=N1 [Example 111, 1-{2-[(R)-2-(5-chloro-7-cyclopentylamino-1H-indol-2-yl)-4,5-dihydro-thiazol-4-yl]-ethyl}-pyrrolidin-2-one]",11 nM
9,"CS(=O)(=O)Cc1cc(NC2CCCC2)c2[nH]c(C3=N[C@H](CC(=O)O)CS3)cc2c1 [Example 69, [(R)-2-(7-cyclopentylamino-5-methanesulfonylmethyl-1H-indol-2-yl)-4,5-dihydro-thiazol-4-yl]-acetic acid]",64 nM
10,"OC[C@@H]1CSC(c2cc3cc(F)cc(NC4CCOCC4)c3[nH]2)=N1 [Example 6, {(R)-2-[5-fluoro-7-(tetrahydro-pyran-4-ylamino)-1H-indol-2-yl]-4,5-dihydro-thiazol-4-yl}-methanol]",31 nM
11,"OC[C@@H]1CSC(c2cc3cc(Cn4ccnc4)cc(NC4CCCC4)c3[nH]2)=N1 [Example 22, [(R)-2-(7-cyclopentylamino-5-imidazol-1-ylmethyl-1H-indol-2-yl)-4,5-dihydro-thiazol-4-yl}-methanol]",112 nM
12,"OC1CCN(CC[C@@H]2CSC(c3cc4cc(Cl)cc(NC5CCCC5)c4[nH]3)=N2)CC1 [Example 101, 1-{2-[(R)-2-(5-chloro-7-cyclopentylamino-1H-indol-2-yl)-4,5-dihydro-thiazol-4-yl]-ethyl}-piperidin-4-ol]",10 nM
13,"OCC[C@@H]1CSC(c2cc3cc(Br)cc(NC4CCCC4)c3[nH]2)=N1 [Example 34, 2-[(R)-2-(5-bromo-7-cyclopentylamino-1H-indol-2-yl)-4,5-dihydro-1,3-thiazol-4-yl]-ethanol]",11 nM
14,"OCC[C@@H]1CSC(c2cc3cc(F)cc(NC4CCOCC4)c3[nH]2)=N1 [Example 41, 2-{(R)-2-[5-fluoro-7-(tetrahydro-pyran-4-ylamino)-1H-indol-2-yl]-4,5-dihydro-thiazol-4-yl}-ethanol]",17 nM
15,"CC(=O)N1CCN(CC[C@@H]2CSC(c3cc4cc(Cl)cc(NC5CCCC5)c4[nH]3)=N2)CC1 [Example 97, 1-(4-{2-[(R)-2-(5-chloro-7-cyclopentylamino-1H-indol-2-yl)-4,5-dihydro-thiazol-4-yl]-ethyl}-piperazin-1-yl)-ethanone]",6 nM

# The remaining lines, values ahead:
row,AC1.5 (the compound concentration at which the enzymatic activity is increased by 1.5 times),Structure (SMILES)
1,122 nM,"c1cc(NC2CCCC2)c2[nH]c(C3=N[C@H](CCN4CCCCC4)CS3)cc2c1 [Example 144, cyclopentyl-{2-[(R)-4-(2-piperidin-1-yl-ethyl)-4,5-dihydro-thiazol-2-yl]-1H-indol-7-yl}-amine]"
2,24 nM,"CCOC(=O)CC[C@@H]1CSC(c2cc3cc(C)cc(NC4CCCC4)c3[nH]2)=N1 [Example 157, 3-[(R)-2-(7-cyclopentylamino-5-methyl-1H-indol-2-yl)-4,5-dihydro-thiazol-4-yl]-propionic acid ethyl ester]"
3,62 nM,"Clc1cc(NC2CCOCC2)c2[nH]c(C3=N[C@H](CCN4CCN(c5ncccn5)CC4)CS3)cc2c1 [Example 123, (5-chloro-2-{(R)-4-[2-(4-pyrimidin-2-yl-piperazin-1-yl)-ethyl]-4,5-dihydro-thiazol-2-yl}-1H-indol-7-yl)-(tetrahydro-pyran-4-yl)-amine]"
4,12 nM,"CCOC(=O)CC[C@@H]1CSC(c2cc3cc(F)cc(NC4CCCC4)c3[nH]2)=N1 [Example 160, 3-[(R)-2-(7-cyclopentylamino-5-fluoro-1H-indol-2-yl)-4,5-dihydro-thiazol-4-yl]-propionic acid ethyl ester]"
5,12 nM,"COc1cc(NC2CCCC2)c2[nH]c(C3=N[C@H](CCC(=O)O)CS3)cc2c1 [Example 165, 3-[(R)-2-(7-cyclopentylamino-5-methoxy-1H-indol-2-yl)-4,5-dihydro-thiazol-4-yl]-propionic acid]"
6,67 nM,"O=S1(=O)CCN(CC[C@@H]2CSC(c3cc4cc(F)cc(NC5CCCC5)c4[nH]3)=N2)CC1 [Example 129, cyclopentyl-(2-{(R)-4-[2-(1,1-dioxo-thiomorpholin-4-yl)-ethyl]-4,5-dihydro-thiazol-2-yl}-5-fluoro-1H-indol-7-yl)-amine]"
7,81 nM,"O=C(O)C1CCCN(CC[C@@H]2CSC(c3cc4cc(Cl)cc(NC5CCOCC5)c4[nH]3)=N2)C1 (stereo partly drawn) [Example 112, 1-(2-{(R)-2-[5-chloro-7-(tetrahydro-pyran-4-ylamino)-1H-indol-2-yl]-4,5-dihydro-thiazol-4-yl}-ethyl)-piperidine-3-carboxylic acid]"
